These molecules were tested against T1, P2X4 receptor (Homo sapiens, UniProt Q99571) (assay: Measurement of Ca2+ influx in transfected 1321N1 astrocytoma cells (P2X4 inhibitory potency)). Settings: agonist-mediated Ca2+ influx, FLUO-4, 1321N1 astrocytoma cells; antagonists added 30 min before agonist.
T1 construct: expressed in transfected cells; host or cells: 1321N1 astrocytoma cells, retroviral vector pQCXIN, G418 selection, monoclones
T1 sequence (Q99571 1-388): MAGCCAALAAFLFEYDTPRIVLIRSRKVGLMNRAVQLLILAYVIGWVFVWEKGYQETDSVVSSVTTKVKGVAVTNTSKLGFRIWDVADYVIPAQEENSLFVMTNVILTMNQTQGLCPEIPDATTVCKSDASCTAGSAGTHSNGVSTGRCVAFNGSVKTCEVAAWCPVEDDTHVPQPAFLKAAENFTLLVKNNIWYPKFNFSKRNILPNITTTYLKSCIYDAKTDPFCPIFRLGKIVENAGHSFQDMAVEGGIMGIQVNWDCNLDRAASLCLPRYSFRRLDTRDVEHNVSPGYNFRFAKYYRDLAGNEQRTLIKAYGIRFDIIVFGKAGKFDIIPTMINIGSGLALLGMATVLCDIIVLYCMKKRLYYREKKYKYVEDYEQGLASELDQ
Assay type: cell-based
Excerpt: The rat, mouse, and human P2X4 DNA, respectively, were cloned into the retroviral vector pQCXIN. 1321N1 Astrocytoma cells were transfected with the DNA using a retroviral system as described previously. In brief, GP+envAM12 packaging cells were first transiently co-transfected with a retroviral vector to generate the retrovirus and with a vesicular stomatitis virus G protein (VSV-G) to pseudotype the virus and to increase their infection efficiency. The viruses containing the rat, mouse or human P2X4 receptor sequence were then used to create a stable astrocytoma cell line. P2X4 receptor-expressing cells were selected with G418 ([…]).
The selection of monoclones for rat and human P2X4 receptors was performed using the limited dilution method by plating the cells at very low cell densities (1 cell clone per well in 96-well plates). Cells were counted, and then several dilutions were made to obtain a concentration of […]. We subsequently added 100 µL of the diluted cell suspension into each well expecting to obtain on average 1 cell per well. After a few days the wells that contained single clones were labeled and transferred into 24 well plates. More than 20 clones were selected for each cell line and characterized in calcium influx assay.
Measurement of Ca^2+ influx in transfected 1321N1 astrocytoma cells
P2X receptor function was determined on the basis of agonist-mediated increases in cytosolic Ca^2+ concentration. The fluorescent Ca^2+chelating dye FLUO-4 was used as an indicator of the relative levels of intracellular Ca^2+ in a 96-well format using a fluorescence imaging plate reader (Novostar, BMG, Germany). Cells were grown to confluence in 96-well black-walled tissue culture plates and loaded with FLUO-4 AM ([…]) in Hank's balanced salt solution (HBSS, containing 10 mM HEPES, pH 7.3, and 1% Pluronic® F127) for 1 h at 23° C. After incubation, the loaded cells were washed with the same buffer to remove extracellular FLUO-4 AM. Compound solutions were prepared in HBSS (containing 20 mM HEPES, pH 7.3) or DMSO depending on their solubility. […] Fluorescence intensity was measured at 520 nm for 30 s at 0.4 s intervals. Buffer or test compounds were injected sequentially into separate wells using the automatic pipetting device. At least three independent experiments were performed in triplicate or duplicate. Antagonists were added 30 min before the addition of agonists. The assays were performed in a final volume of 200 μL. Compounds were tested at 7-8 different concentrations spanning three orders of magnitude of concentrations. Statistical significances were calculated using the unpaired two-tailed t-test.
Molecule CCc1nsc(-c2ccc(C)c(NCC(=O)N3CCc4c3cccc4S(=O)(=O)NC)c2)n1 [Example 26, 1-((5-(3-ethyl-1,2,4-thiadiazol-5-yl)-2-methylphenyl)glycyl)-N-methylindoline-N-sulfonamide] has an IC50 of 0.1 to 19 nM. For CCc1nsc(-c2ccc(C)c(NCC(=O)N3CCc4c(N5CC(C)OC(C)C5)cccc43)c2)n1 (centres unmarked) [Example 27, 1-(4-(2,6-dimethylmorpholino)indolin-1-yl)-2-((5-(3-ethyl-1,2,4-thiadiazol-5-yl)-2-methylphenyl)amino) ethan-1-one], the IC50 was 0.1 to 19 nM. Cc1ccc(-c2ccc(C)c(NCC(=O)N3CCc4c(CO)cccc43)c2)o1 [Example 28, 1-(4-(hydroxymethyl)indolin-1-yl)-2-((2-methyl-5-(5-methylfuran-2-yl)phenyl)amino)ethan-1-one] showed an IC50 of 0.1 to 19 nM. Work on Cc1nsc(-c2ccc(C)c(NCC(=O)N3CCc4c(C(C)O)cccc43)c2)n1 (centres unmarked) [Example 29, 1-(4-(1-hydroxyethyl)indolin-1-yl)-2-((2-methyl-5-(3-methyl-1,2,4-thiadiazol-5-yl)phenyl)amino)ethan-1-one] yielded an IC50 of 20 to 39 nM. Cc1nsc(-c2ccc(C)c(NCC(=O)N3CCc4c(OCCC(C)(C)O)cccc43)c2)n1 [Example 30, 1-(4-(3-hydroxy-3-methylbutoxy)indolin-1-yl)-2-((2-methyl-5-(3-methyl-1,2,4-thiadiazol-5-yl)phenyl)amino)ethan-1-one] gave an IC50 of 0.1 to 19 nM. Molecule Cc1nsc(-c2ccc(C)c(NCC(=O)N3CCc4c(OCCOCCO)cccc43)c2)n1 [Example 31, 1-(4-(2-(2-hydroxyethoxy)-ethoxy)indolin-1-yl)-2-((2-methyl-5-(3-methyl-1,2,4-thiadiazol-5-yl)phenyl)-amino)ethan-1-one] has an IC50 of 20 to 39 nM. In the case of Cc1nsc(-c2ccc(C)c(NCC(=O)N3CCc4c(-c5cccnc5)cccc43)c2)n1 [Example 32, 2-((2-methyl-5-(3-methyl-1,2,4-thiadiazol-5-yl)phenyl)amino)-1-(4-(pyridin-3-yl)indolin-1-yl)ethan-1-one], the IC50 is reported as 0.1 to 19 nM. Molecule Cc1nsc(-c2ccc(C)c(NCC(=O)N3CCc4c(C(O)C(F)(F)F)cccc43)c2)n1 (centres unmarked) [Example 33, 2-((2-methyl-5-(3-methyl-1,2,4-thiadiazol-5-yl)phenyl)amino)-1-(4-(2,2,2-trifluoro-1-hydroxyethyl)indolin-1-yl)ethan-1-one] has an IC50 of 20 to 39 nM. With COc1cccc2c1CCN2C(=O)CNc1cc(-c2nc(C)ns2)ccc1F [Example 34, 2-((2-fluoro-5-(3-methyl-1,2,4-thiadiazol-5-yl)phenyl)amino)-1-(4-methoxyindolin-1-yl)ethan-1-one] the IC50 was 20 to 39 nM. Work on CCc1nsc(-c2ccc(C)c(NCC(=O)N3CCc4c3cccc4-n3ccnc3)c2)n1 [Example 35, 1-(4-(1H-imidazol-1-yl)indolin-1-yl)-2-((5-(3-ethyl-1,2,4-thiadiazol-5-yl)-2-methyl-phenyl)amino)ethan-1-one] yielded an IC50 of 20 to 39 nM. Molecule Cc1ccc(-c2ccc(C)c(NCC(=O)N3CCc4c3cccc4N3C4CCC3CC(O)C4)c2)o1 (centres unmarked) [Example 36, 1-(4-(3-hydroxy-8-azabicyclo[3.2.1]octan-8-yl)indolin-1-yl)-2-((2-methyl-5-(5-methylfuran-2-yl)phenyl)amino)ethan-1-one] has an IC50 of 20 to 39 nM. With CC(=O)c1cccc2c1CCN2C(=O)CNc1cc(-c2nc(C)ns2)ccc1C [Example 37, 1-(4-acetylindolin-1-yl)-2-((2-methyl-5-(3-methyl-1,2,4-thiadiazol-5-yl)phenyl)amino)ethan-1-one] the IC50 was 20 to 39 nM. Molecule Cc1ccc(-c2nc(C3CC3)ns2)cc1NCC(=O)N1CCc2c(OCC(C)(C)O)cccc21 [Example 38, 2-((5-(3-cyclopropyl-1,2,4-thiadiazol-5-yl)-2-methylphenyl)amino)-1-(4-(2-hydroxy-2-methylpropoxy)-indolin-1-yl)ethan-1-one] has an IC50 of 20 to 39 nM. O=C(CNc1cc(-c2nc(Cl)ns2)ccc1Cl)N1CCc2c(O)cccc21 [Example 39, 2-((2-chloro-5-(3-chloro-1,2,4-thiadiazol-5-yl)phenyl)amino)-1-(4-hydroxyindolin-1-yl) ethan-1-one] showed an IC50 of 20 to 39 nM.
